The text below walks through data of patent US4707491A, “Anticonvulsant γ-thiobutyrolactone derivatives” (Washington University, priority 1985, dated 1987).

The nature of data set [1]: Rotorod Test for Toxicity. The settings on record: mouse, in vivo; mice; rotorod at 6 rpm, 10 min; at time of peak effect. How it is done: The rotorod test is a standard method used in mice to access neurotoxicity and is described, for example, by Krall et al., Epilepsia 19, 409-428 (1978).
(§1) Compounds were tested for anticonvulsant activity and toxicity in mice by the following tests.
Rotorod Test for Toxicity
This test is used in mice to assess neurotoxicity. Mice are placed on the rotorod, which rotates at 6 rpm, and tested for maintenance of their equilibrium for 10 min. All mice are pre-tested before test substance is given. At the time of peak effect of the test substance, mice are put back on the rotorod for 10 min. Neurological deficit (toxicity) is indicated by the inability of the animal to maintain its equilibrium for 10 min. on this rotating rod.
(In general: The rotarod test checks motor coordination on a turning rod.)

Data set [2] has as its system pentylenetetrazol seizures. In words: Pentylenetetrazol Seizure Threshold Test. The settings on record: Mus musculus, mice. Type of data set: in vivo. As to the method: See, for example, Krall et al., Epilepsia 19, 409-428 (1978).
as §1
Pentylenetetrazol Seizure Threshold Test
The animals are placed in isolation cages and observed for the next 30 min. for the presence or absence of a seizure. A threshold convulsion is defined as one episode of clonic spasms that persists for at least a 5-sec period.

Data set [3] concerns maximal electroshock seizures. Kind of data set: Maximal Electroshock Seizure Test. In kind it is in vivo, mice. The settings on record: for anti-MES activity: comparison of anticonvulsant profiles. As to the method:
One recognized test which is frequently used for this purpose is to determine the capacity of the drug to modify the effects of maximal electric shock (MES) by inhibition of tonic hindlimb extension. See, for example, the test described by Swinyard and co-workers at J. Pharmacol. Exper. Therap. 106, 319-330 (1952).
as §1
Maximal Electroshock Seizure Test
At the time of peak effect of the test substance, a drop of 0.9% sodium chloride is applied to the eyes of each animal. Corneal electrodes are applied to the eyes, and an electrical stimulus of 50 mA is delivered for 0.2 sec. The animals are held by hand and released at the time of stimulation for observation of the seizure. Abolition of the hindleg tonic extension component is taken as the endpoint for this test.

Setting [4] is: read-out: ED50 against (clonic) seizures produced by 85 mg/kg pentylenetetrazol, 85 mg/kg pentylenetetrazol IP, clonic (threshold) seizures.

Like-named read-outs stand apart in the source and are kept apart here.

For `CC(C)C1CCSC1=O` (stereo not drawn) [α-isopropyl-γ-thiobutyrolactone], the TD50 in data set [1] came to 278 mg/kg. The ED50 in data set [2] (setting [4]) was 137 mg/kg; in data set [3] (Mus musculus, read-out: ED50 against maximal electroshock seizures (MES)) it was 240 mg/kg.

As for `CCCC(CCC)C(=O)O` [valproic acid], in data set [3], the anti-MES activity result is given as “have anti-MES activity”.

Turning to `CCC1(C)CC(=O)NC1=O` (centres unmarked) [ethosuximide], the anti-MES activity result in data set [3] is reported as “do not”.

On to `CCC1(C)CCOC1=O` (stereo not drawn) [α-EMBL, α-ethyl-α-methyl-γ-butyrolactone], for which the TD50 in data set [1] was approximately 350 mg/kg. Besides, the ED50 in data set [2] (setting [4]) turned out to be 226 mg/kg; in data set [2] (read-out: ED50 against clonic seizures produced by 100 mg/kg pentylenetetrazol, 100 mg/kg pentylenetetrazol IP, clonic seizures) it was 304 mg/kg; in data set [2] (read-out: ED50 against tonic seizures produced by 100 mg/kg pentylenetetrazol, 100 mg/kg pentylenetetrazol IP, tonic seizures), 250 mg/kg. Also, the anti-MES activity entry in data set [3] is “do not”. For the same compound, the “protection against maximal electroshock seizures” value in data set [3] (mice, at doses up to 350 mg/kg) is on record as “No protection”.

What is called TD50 is the dose at which the toxic effect under study appears in half of the subjects. A low value points to harm at a small dose.
